Target: T1, TAOK1 (Homo sapiens, UniProt Q7L7X3)
T1 construct: purchased Thermo Fisher Scientific (Life Technologies) SelectScreen
Assay: SelectScreen LanthaScreen
Type: binding
Settings: read-out: % displacement
How it was run: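 Percent values come from Thermo SelectScreen profiling of NU5455, combining activity and binding assays. CSF1R was run in Z'LYTE format at Km app ATP, and CAMK1 in Adapta format with ATP listed at 10.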

T1 sequence (Q7L7X3 whole entry): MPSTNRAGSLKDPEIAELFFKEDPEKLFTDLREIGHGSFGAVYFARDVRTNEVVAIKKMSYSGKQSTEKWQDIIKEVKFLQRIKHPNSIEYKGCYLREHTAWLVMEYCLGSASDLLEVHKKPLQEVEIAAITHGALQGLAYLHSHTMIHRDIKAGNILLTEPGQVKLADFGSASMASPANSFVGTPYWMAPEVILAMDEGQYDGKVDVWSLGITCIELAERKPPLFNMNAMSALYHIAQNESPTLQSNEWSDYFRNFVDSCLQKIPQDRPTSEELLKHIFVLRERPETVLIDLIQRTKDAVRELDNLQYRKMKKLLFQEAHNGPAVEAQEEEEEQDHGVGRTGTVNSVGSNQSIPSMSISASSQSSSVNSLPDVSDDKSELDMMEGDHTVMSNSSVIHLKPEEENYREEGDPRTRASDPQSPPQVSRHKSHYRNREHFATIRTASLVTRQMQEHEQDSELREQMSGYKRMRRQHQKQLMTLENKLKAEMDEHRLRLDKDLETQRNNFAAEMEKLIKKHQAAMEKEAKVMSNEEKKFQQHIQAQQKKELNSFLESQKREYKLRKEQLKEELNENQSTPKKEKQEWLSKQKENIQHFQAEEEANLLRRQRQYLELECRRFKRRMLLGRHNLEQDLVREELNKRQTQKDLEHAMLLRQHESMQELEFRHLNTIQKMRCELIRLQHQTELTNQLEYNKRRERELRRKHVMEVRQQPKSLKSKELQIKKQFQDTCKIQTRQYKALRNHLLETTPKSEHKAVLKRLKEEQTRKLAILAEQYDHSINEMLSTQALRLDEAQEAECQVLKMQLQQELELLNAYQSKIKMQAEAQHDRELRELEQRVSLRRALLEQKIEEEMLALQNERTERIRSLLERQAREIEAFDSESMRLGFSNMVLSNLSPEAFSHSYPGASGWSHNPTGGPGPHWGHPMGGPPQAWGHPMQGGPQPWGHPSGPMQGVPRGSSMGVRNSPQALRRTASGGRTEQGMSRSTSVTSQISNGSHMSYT

CN(C(=O)CN1CCOCC1)c1ccc2sc3c(-c4cccc5c(=O)cc(N6CC7CCC(C6)O7)oc45)cccc3c2c1 [NU5455]
inhibition at 1 µM: 3.7%

Source: PMC6934184, “Selective DNA-PKcs inhibition extends the therapeutic index of localized radiotherapy and chemotherapy” (The Journal of Clinical Investigation, 2019)
